Reference: ChEMBL document CHEMBL1201862, “PubChem BioAssay data set” (2004)
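Assay format: 96-well plates, 48-hour exposure. GI50 is the concentration that inhibits growth by half.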 Calls of active or inactive are those of the source. Rule as the data show it: active = GI50 up to about 1.1 µM and inactive = higher.

What was measured:
Assay in all cases: NCI anticancer screen, dose series, 48 h
786-0 = test system: 786-0
OVCAR-4 = test system: OVCAR-4
UACC-257 = test system: UACC-257
EKVX = test system: EKVX
SK-MEL-2 = test system: SK-MEL-2
HOP-62 = test system: HOP-62
SF-295 = test system: SF-295
M14 = test system: M14
A549 = test system: A549
SNB-75 = test system: SNB-75
ACHN = test system: ACHN
NCI-H226 = test system: NCI-H226
LOX IMVI = test system: LOX IMVI
CAKI-1 = test system: CAKI-1

Measured: GI50

O=C1c2ccccc2-c2cccc3ccc(Cc4ccccc4)c1c23
inactive: 786-0 > 100 µM | OVCAR-4 84.3 µM | UACC-257 > 100 µM | EKVX > 100 µM | SK-MEL-2 > 100 µM | HOP-62 > 100 µM | SF-295 > 100 µM | M14 > 100 µM | A549 > 100 µM | SNB-75 6.53 µM | ACHN > 100 µM

O=c1cccccc1NCCCCCCCCNc1cccccc1=O
inactive: 786-0 > 100 µM | NCI-H226 > 100 µM | LOX IMVI 14.3 µM | UACC-257 > 100 µM | CAKI-1 > 100 µM | EKVX 24.9 µM | SK-MEL-2 > 100 µM | HOP-62 > 100 µM | SF-295 18.8 µM | M14 > 100 µM | A549 39.9 µM | SNB-75 32.4 µM | ACHN 3.33 µM

CN(C)CCCNc1ccnc2c([N+](=O)[O-])cccc12
inactive: 786-0 22.2 µM | OVCAR-4 15.2 µM | NCI-H226 > 100 µM | LOX IMVI 19.5 µM | UACC-257 15.5 µM | CAKI-1 35.3 µM | EKVX 10.5 µM | SK-MEL-2 > 10 µM | HOP-62 29.3 µM | SF-295 20.9 µM | M14 29.2 µM | A549 28.2 µM | ACHN 31.1 µM

O=S(=O)(c1ccccc1)n1cnc(CCc2ccccc2)n1
inactive: 786-0 > 100 µM | OVCAR-4 > 100 µM | NCI-H226 > 100 µM | LOX IMVI > 100 µM | UACC-257 > 100 µM | CAKI-1 > 100 µM | SK-MEL-2 > 100 µM | HOP-62 > 100 µM | SF-295 > 100 µM | M14 > 100 µM | A549 > 100 µM | SNB-75 45.1 µM | ACHN > 100 µM

N#C/N=C1\NCCC(=O)N1CCc1c[nH]c2ccccc12
inactive: 786-0 > 100 µM | OVCAR-4 > 100 µM | NCI-H226 > 100 µM | LOX IMVI > 100 µM | UACC-257 > 100 µM | EKVX > 100 µM | HOP-62 > 100 µM | SF-295 > 100 µM | M14 > 100 µM | A549 > 100 µM | SNB-75 > 100 µM

CN(C)CCC(/C=C/c1ccccc1)=N\Nc1ccc(Cl)cc1
inactive: 786-0 2.39 µM | OVCAR-4 5.21 µM | LOX IMVI 1.59 µM | UACC-257 4.18 µM | EKVX 2.49 µM | SK-MEL-2 2 µM | HOP-62 1.8 µM | SF-295 3.99 µM | M14 3.18 µM | A549 2.52 µM | SNB-75 4.31 µM | ACHN 2.23 µM

N=C(N)NS(=O)(=O)c1ccc(Nc2c3ccccc3nc3c(C(=O)Nc4ccc(S(N)(=O)=O)cc4)cccc23)cc1
inactive: 786-0 > 100 µM | OVCAR-4 > 100 µM | LOX IMVI 28.2 µM | UACC-257 > 100 µM | CAKI-1 > 100 µM | EKVX > 100 µM | SK-MEL-2 42.5 µM | HOP-62 > 100 µM | SF-295 > 100 µM | M14 > 100 µM | A549 > 100 µM | SNB-75 42.1 µM | ACHN > 100 µM

COc1ccc2c(c1)OCCCN(C)OC2c1ccccc1 (centres undefined)
inactive: 786-0 > 100 µM | NCI-H226 > 100 µM | UACC-257 > 100 µM | CAKI-1 > 100 µM | EKVX > 100 µM | SK-MEL-2 > 100 µM | SF-295 > 100 µM | A549 > 100 µM | SNB-75 > 100 µM | ACHN > 100 µM

C#Cc1cccc(N2C(=O)c3c(c(-c4ccccc4)c(-c4ccc(Cc5ccc(-c6c(-c7ccccc7)c7c(c(-c8ccccc8)c6-c6ccccc6)C(=O)N(c6cccc(C#C)c6)C7=O)cc5)cc4)c(-c4ccccc4)c3-c3ccccc3)C2=O)c1
inactive: 786-0 30.2 µM | OVCAR-4 > 100 µM | UACC-257 47.3 µM | EKVX 51.2 µM | SK-MEL-2 57.9 µM | HOP-62 25.8 µM | SF-295 37.8 µM | M14 16.9 µM | A549 24.4 µM | SNB-75 16.3 µM | ACHN 15.9 µM

O=C(c1ccccc1)c1oc2ccc(Br)cc2c1-c1cnn(-c2ccccc2)c1
inactive: 786-0 > 100 µM | OVCAR-4 > 100 µM | LOX IMVI > 100 µM | UACC-257 > 100 µM | CAKI-1 > 100 µM | EKVX > 10 µM | SK-MEL-2 > 100 µM | HOP-62 > 100 µM | SF-295 > 100 µM | M14 > 100 µM | A549 > 10 µM | SNB-75 > 100 µM | ACHN > 100 µM

CCC(/C=C/c1ccccc1)=N\N=C(\C=C\c1ccccc1)CC
inactive: 786-0 > 100 µM | OVCAR-4 > 100 µM | NCI-H226 > 100 µM | LOX IMVI > 100 µM | UACC-257 > 100 µM | EKVX > 100 µM | SK-MEL-2 > 100 µM | HOP-62 > 100 µM | SF-295 > 100 µM | M14 > 100 µM | A549 > 100 µM | SNB-75 > 100 µM | ACHN > 100 µM

O=C1C2Cc3ccccc3CN2C(=O)N1CCN1CCOCC1 (centres undefined)
inactive: 786-0 > 100 µM | OVCAR-4 > 100 µM | NCI-H226 > 100 µM | LOX IMVI > 100 µM | CAKI-1 > 100 µM | SK-MEL-2 > 100 µM | HOP-62 > 100 µM | SF-295 > 100 µM | M14 > 100 µM | A549 > 100 µM | ACHN > 100 µM
